From patent publication US10413559B2, “Method for treating demyelinating disease” (OCHANOMIZU UNIVERSITY, priority 2013, dated 2019)

Key:
[1] = tested on: demyelination model mice (0.2% cuprizone); experiment: Myelin level by Black Gold staining in cuprizone demyelination model mice (Example 1); format: in vivo, C57BL/6 mice; details: intraperitoneal 40 μg/200 μl saline/day for 5 weeks, FIG. 2
Protocol: 10-week-old male C57BL/6 mice were fed with a mash feed containing 0.2% cuprizone for five weeks until the most significant demyelination occurred, so as to produce demyelination model mice. cPA and carba-cPA (cPA) powders were each dissolved in a saline, and the obtained solutions were each administered intraperitoneally at a dose of 40 μg/200 μl saline/day to the mice every day for 5 weeks. On the other hand, to negative control mice, a saline (200 μl/day) was intraperitoneally administered in the same manner as described above. The mice, to which the test compound had been administered, were subjected to perfusion fixation with 4% paraformaldehyde, and sections to be used for frozen tissue staining (30 μm) were then prepared in a cryostat (FIG. 1). The level of myelin in each mouse was measured by Black Gold staining, and the demyelination level was then measured based on the stained level (FIG. 2).

[2] = tested on: GFAP, Iba1, PDGFRa, P2rx7, Nlrp3 gene expression in corpus callosum; experiment: Genetic analysis using Q-PCR of corpus callosum tissues; format: in vivo, C57BL/6j mice; details: cuprizone mice; intraperitoneal 1.6 mg/kg/day for 5 weeks; FIG. 6-8
Excerpt: 10-week-old male C57BL/6j mice (Tokyo Laboratory Animals Science Co., Ltd., Tokyo, Japan) were fed by the discretionary intake of a mash feed (CLEA Japan, Inc.) that contained 0.2% cuprizone (biscyclohexanone oxalyl hydrazone; Merck KGaA, Darmstadt, Germany) for 5 weeks until demyelination progressed most, so as to produce demyelination model mice involving demyelination caused by oligodendrocyte-specific cell death.
To obtain mouse corpus callosum tissues to be used for genetic analysis, mouse brain was removed, and the corpus callosum tissues were then collected from the brain. […]
mRNA was extracted from the frozen corpus callosum tissues using ISOGEN (Nippon Gene Co., Ltd., Tokyo, Japan), was then dissolved in RNase free molecular grade water (Takara Bio Inc., Shiga, Japan), and was then preserved at −80° C. […] Gene expression was detected using 7900 Sequence Detection System (Applied Biosystems). […] The gene expression level was calculated by a ΔΔCT method. Data were analyzed by a relative quantification method. A relative change in the gene expression was analyzed, while setting the gene expression level in a control mouse at 100%.

[3] = tested on: demyelination model mice (0.2% cuprizone); experiment: Test of motor function impairment using rotarod; format: in vivo, C57BL/6j mice; details: intraperitoneal 1.6 mg/kg/day for 5 weeks, 28 rpm, 300 seconds, FIG. 9, FIG. 10
Excerpt: 10-week-old male C57BL/6j mice (Tokyo Laboratory Animals Science Co., Ltd., Tokyo, Japan) were fed by the discretionary intake of a mash feed (CLEA Japan, Inc.) that contained 0.2% cuprizone (biscyclohexanone oxalyl hydrazone; Merck KGaA, Darmstadt, Germany) for 5 weeks until demyelination progressed most, so as to produce demyelination model mice involving demyelination caused by oligodendrocyte-specific cell death. The cPA used in the experiment was the same cPA (16:0) as that used in Example 1, and the carba-cPA was 2 ccPA (16:1). The cPA and 2 ccPA were chemically purified (Biochimica et Biophysica Acta, Emi Nozaki 2011), and were then dissolved in a 0.9% saline. […] The locomotion time on the rod was evaluated by measuring the time required for the mice to fall from the rotating rod within a record time of 300 seconds. Moreover, even after the mice had fallen from the rod, they were forced to continue their activity immediately after the falling, so that a total number of the activities from falling from the rod to holding on to the rod for 300 seconds (a number of falls and flips) was measured and evaluated. The data of the test of motor function impairment were analyzed according to a non-parametric method using a Kruskal-Wallis test. All of other data were analyzed according to a one-way ANOVA method using a Newman-Keulis test. […]

[4] = tested on: demyelination model mice (0.2% cuprizone), corpus callosum; experiment: Histological staining (Black Gold II) of corpus callosum and evaluation of demyelination (Example 2); format: in vivo, C57BL/6j mice; details: intraperitoneal 1.6 mg/kg/day for 5 weeks, FIG. 3, FIG. 4
Excerpt: 10-week-old male C57BL/6j mice (Tokyo Laboratory Animals Science Co., Ltd., Tokyo, Japan) were fed by the discretionary intake of a mash feed (CLEA Japan, Inc.) that contained 0.2% cuprizone (biscyclohexanone oxalyl hydrazone; Merck KGaA, Darmstadt, Germany) for 5 weeks until demyelination progressed most, so as to produce demyelination model mice involving demyelination caused by oligodendrocyte-specific cell death. To obtain tissues to be used for histological analysis, a mouse was subjected to perfusion fixation through the heart with 4% paraformaldehyde, and the resulting brain tissues were then excised from the mouse. Thereafter, the tissues were immobilized and infiltrated with 30% sucrose. Thereafter, a frozen tissue block was prepared and was then sliced in a cryostat. The cPA used in the experiment was the same cPA (16:0) as that used in Example 1, and the carba-cPA was 2 ccPA (16:1). The cPA and 2 ccPA were chemically purified (Biochimica et Biophysica Acta, Emi Nozaki 2011), and were then dissolved in a 0.9% saline. […] For the analysis of the level of myelin, using Image J 1.46r software, the stained level in the corpus callosum area was measured, and the demyelination level was then evaluated, while setting the control as 100%.

DNA polymerase α = biological target: T1, DNA polymerase α (Homo sapiens, UniProt P09884); details: Murakami-Murofushi et al. 1992; cited from earlier work
T1 sequence (P09884 1-1462): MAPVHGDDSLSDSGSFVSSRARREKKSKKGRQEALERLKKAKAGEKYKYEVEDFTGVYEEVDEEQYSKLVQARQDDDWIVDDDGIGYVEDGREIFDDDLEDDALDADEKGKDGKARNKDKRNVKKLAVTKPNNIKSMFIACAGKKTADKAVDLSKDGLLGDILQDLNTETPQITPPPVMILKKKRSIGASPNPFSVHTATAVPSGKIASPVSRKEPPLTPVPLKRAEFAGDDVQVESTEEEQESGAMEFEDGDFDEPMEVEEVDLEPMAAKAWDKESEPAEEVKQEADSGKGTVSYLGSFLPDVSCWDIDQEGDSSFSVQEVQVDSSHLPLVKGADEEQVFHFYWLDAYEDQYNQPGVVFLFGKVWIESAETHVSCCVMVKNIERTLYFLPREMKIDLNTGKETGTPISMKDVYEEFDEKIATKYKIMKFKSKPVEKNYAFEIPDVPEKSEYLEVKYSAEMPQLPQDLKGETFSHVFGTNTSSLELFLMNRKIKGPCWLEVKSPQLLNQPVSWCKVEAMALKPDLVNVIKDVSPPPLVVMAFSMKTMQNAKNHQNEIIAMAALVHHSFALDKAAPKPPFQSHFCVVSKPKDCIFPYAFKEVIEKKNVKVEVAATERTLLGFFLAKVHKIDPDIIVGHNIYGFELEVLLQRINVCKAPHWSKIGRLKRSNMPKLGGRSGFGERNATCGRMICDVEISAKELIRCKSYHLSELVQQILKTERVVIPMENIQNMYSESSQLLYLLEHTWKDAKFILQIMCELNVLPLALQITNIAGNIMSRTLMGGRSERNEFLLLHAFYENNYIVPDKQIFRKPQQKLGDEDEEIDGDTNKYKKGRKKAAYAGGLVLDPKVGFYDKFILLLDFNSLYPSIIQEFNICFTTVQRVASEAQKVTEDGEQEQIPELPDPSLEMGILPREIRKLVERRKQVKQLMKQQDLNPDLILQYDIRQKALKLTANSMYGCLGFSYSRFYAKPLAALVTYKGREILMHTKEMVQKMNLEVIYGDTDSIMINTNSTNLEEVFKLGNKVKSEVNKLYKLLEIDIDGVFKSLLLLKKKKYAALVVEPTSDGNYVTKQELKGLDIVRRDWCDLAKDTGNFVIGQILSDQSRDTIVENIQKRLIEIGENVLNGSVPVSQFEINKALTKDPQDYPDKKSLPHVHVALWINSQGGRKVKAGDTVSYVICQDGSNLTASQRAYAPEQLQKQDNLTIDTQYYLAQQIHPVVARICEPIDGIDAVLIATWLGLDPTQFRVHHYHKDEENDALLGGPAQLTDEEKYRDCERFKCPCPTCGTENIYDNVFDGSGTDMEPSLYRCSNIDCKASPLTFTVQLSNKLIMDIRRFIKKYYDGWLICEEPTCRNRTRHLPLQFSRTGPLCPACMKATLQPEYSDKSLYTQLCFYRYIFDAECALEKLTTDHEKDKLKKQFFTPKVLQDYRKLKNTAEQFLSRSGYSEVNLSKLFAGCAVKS

cultured animal cells = details: Murakami-Murofushi et al. 1992; cited from earlier work

SMILES	level of myelin (Black Gold staining) versus control mouse [1]	nerve inflammation (gene expression by Q-PCR) [2]	motor function impairment (rotarod) [3]	demyelination level in corpus callosum (Black Gold II staining) [4]	activity of DNA polymerase α (DNA polymerase α)	proliferation of cultured animal cells (cultured animal cells)
CCCCCCCCC=CCCCCCCCC(=O)OCC1COP(=O)(O)C1 (stereo not shown) [2 ccPA (18:1), oleoyl 2-carba-cPA]	the same results as in the case of cPA (16:0) and 2 ccPA (16:1) were obtained	–	–	–	–	–
CCCCCC/C=C\CCCCCCCC(=O)OCC1COP(=O)(O)C1 (stereo not shown) [2 ccPA, palmitoleoyl 2-carba-cPA]	higher than the level of myelin in a control mouse	nerve inflammation is suppressed	motor function impairment is improved	demyelination is suppressed	–	–
CCCCCC[C@@H]1C[C@@H]1CCCCCCCC(=O)OC[C@@H]1COP(=O)([O-])O1.[Na+] [PHYLPA]	–	–	–	–	suppressing the activity of DNA polymerase α	suppressing proliferation of cultured animal cells
